The term % Inhibition denotes the relative decrease from the control value, in per cent. By pIC50 is commonly meant the negative decadic logarithm of the IC50, by convention in mol/L. Low readings indicate a high IC50, high ones a low IC50.

Results on eight compounds are retold here after patent US10590085B2, “Heterocyclic amides as kinase inhibitors” (GlaxoSmithKline Intellectual Property Development Limited, priority 2015, dated 2020).

pIC50: −log10 of the molar value.

In data set [1] the test system is TNF/zVAD induced temperature loss in mice. Briefly: TNF-driven systemic inflammatory response syndrome model using TNF plus zVAD (temperature loss). Format: in vivo, mouse.
The test system of data set [2] is human monocytic leukemia U937 cells. Briefly: necroptosis assay in U937 cells. The data set is classed as cell-based. Conditions: Homo sapiens, U-937, U937 cells; viability by cellular ATP (Cell Titer-Glo); read-out: mean pIC50, inhibition of necrosis in U937 cells (converted). The procedure:
(§1) The efficacy of RIP1 inhibitors can be tested […] in vitro using a human monocytic leukemia U937 or mouse L929 fibrosarcoma cells in a necroptosis assay. As determined using the method described in He, S. et al. 2009. Cell 137(6):1100-1111 and International Patent Appln. No. PCT/IB2014/059004, now, International Patent Appln. Pub.
(§2) Viability was measured by quantitating cellular levels of ATP using the Cell Titer-Glo kit. All data are means±standard deviation of the mean.
A general note: In ATP-based viability assays light output follows the ATP content of the culture.

The conditions of data set [3]: background statement; cited from earlier work.
In data set [4] the test system is RIP1 kinase. Conditions: ischemic brain injury, retinal ischemia/reperfusion injury, Huntington's disease, renal ischemia reperfusion injury, cisplatin induced kidney injury, traumatic brain injury; cited from earlier work.
Data set [5] relates to mouse L929 fibrosarcoma cells. Briefly: necroptosis assay in L929 cells. Format: cell-based. Conditions: viability by cellular ATP (Cell Titer-Glo), read-out: mean pIC50, inhibition of necrosis in L929 cells (converted). The procedure: as §1, §2
Data set [6] addresses T1, RIP1 kinase (Homo sapiens, UniProt Q13546).
T1 sequence (Q13546 1-375 limits assumed): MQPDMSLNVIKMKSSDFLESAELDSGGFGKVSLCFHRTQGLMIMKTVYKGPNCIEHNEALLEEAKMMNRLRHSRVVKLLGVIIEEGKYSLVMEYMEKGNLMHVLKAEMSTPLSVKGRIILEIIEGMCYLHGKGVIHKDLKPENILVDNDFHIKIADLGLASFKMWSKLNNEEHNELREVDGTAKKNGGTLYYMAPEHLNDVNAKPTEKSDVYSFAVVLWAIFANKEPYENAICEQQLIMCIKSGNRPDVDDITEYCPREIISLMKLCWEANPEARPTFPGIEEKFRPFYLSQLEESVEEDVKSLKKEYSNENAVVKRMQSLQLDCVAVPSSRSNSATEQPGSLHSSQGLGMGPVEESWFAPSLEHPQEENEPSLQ
Briefly: fluorescent polarization based binding assay. Conditions: mean value, minimum of 2 experiments. An excerpt: A fluorescent polarization based binding assay was used to asses the activity of the compounds of this invention, the details of which are disclosed in International Patent Appln. No. PCT/IB2014/059004, now, International Patent Appln. Pub.

The subject of data set [7] is TNF induced temperature loss in mice. Briefly: TNF (alone) version of the systemic inflammatory response syndrome model (temperature loss). Format: in vivo, mouse. An excerpt: The model can be run in a long modality (using TNF alone i.v.) which results in the termination of the study in ˜8 hrs (under IACUC guidelines for temperature loss). […] All data are shown as means±standard error of the mean.

Setting [8] is: 10 mg/kg PO, pre-dosed 15 minutes before i.v. mouse TNF and zVAD.

For `Cc1ocnc1C(=O)N1CCC(C(=O)N2N=CCC2c2ccccc2)CC1` (stereo not shown) [Example 158, (5-methyloxazol-4-yl)(4-(5-phenyl-4,5-dihydro-1H-pyrazole-1-carbonyl)piperidin-1-yl)methanone], in data set [1] (setting [8]), the “% Inhibition” value was determined as 77%. The IC50 in data set [2] was 1 to 100 nM.

As for `CN1C(=O)C(Cc2c[nH]c3ccccc23)NC1=S` (stereo not shown) [Necrostatin-1], in data set [3], the oral bioavailability result is reported as “poor”. The “effectiveness in alleviating disease” value with RIP1 kinase [4] is on record as “effective”.

As for `CC(C)(C)C(=O)N1N=CC[C@H]1c1ccccn1` [Example 48, (S)-2,2-dimethyl-1-(5-(pyridin-2-yl)-4,5-dihydro-1H-pyrazol-1-yl)-propan-1-one], the “% Inhibition” value in data set [1] (0.5 mg/kg IP, pre-dosed 15 minutes before i.v. mouse TNF and zVAD) is 17%; in data set [1] (5 mg/kg IP, pre-dosed 15 minutes before i.v. mouse TNF and zVAD) it was 52%; in data set [1] (50 mg/kg IP, pre-dosed 15 minutes before i.v. mouse TNF and zVAD) it was 91%. Also, the IC50 in data set [5] is approximately 200 nM.

Regarding `CC(C)(C)C(=O)N1N=CC[C@H]1c1ccc(Cl)cc1` [Example 66, (S)-1-(5-(4-chlorophenyl)-4,5-dihydro-1H-pyrazol-1-yl)-2,2-dimethyl-propan-1-one], in data set [1] (0.1 mg/kg IP, pre-dosed 15 minutes before i.v. mouse TNF and zVAD), the “% Inhibition” value came out at 52%. In addition, in data set [5], the IC50 was approximately 0.00158 nM.

Take `CC(C)(C)C(=O)N1N=CC[C@H]1c1ccccc1` [Example 13, (S)-2,2-dimethyl-1-(5-phenyl-4,5-dihydro-1H-pyrazol-1-yl)propan-1-one]: the “% Inhibition” value in data set [1] (20 mg/kg IP, pre-dosed 15 minutes before i.v. mouse TNF (30 μg/mouse) and zVAD (0.4 mg/mouse)) is on record as 80%. The IC50 in data set [5] was approximately 5.01 nM.

In turn, `CC(=O)N1CCC(C(=O)N2N=CC[C@H]2c2cc(F)cc(F)c2)CC1` [Example 203, (S)-1-(4-(5-(3,5-difluorophenyl)-4,5-dihydro-1H-pyrazole-1-carbonyl)piperidin-1-yl)ethanone] gave a pIC50 at RIP1 kinase [6] of approximately 7.50. The “% Inhibition” value is on record as 9% in data set [1] (1 mg/kg PO, pre-dosed 15 minutes before i.v. mouse TNF and zVAD); 46% in data set [1] (setting [8]); 88% in data set [1] (100 mg/kg PO, pre-dosed 15 minutes before i.v. mouse TNF and zVAD); −14% in data set [7] (1 mg/kg orally pre-dosed 15 minutes before i.v. mouse TNF (30 μg/mouse) alone); 45% in data set [7] (10 mg/kg orally pre-dosed 15 minutes before i.v. mouse TNF alone); 86% in data set [7] (100 mg/kg orally pre-dosed 15 minutes before i.v. mouse TNF alone).

`CC(=O)N1CCC(C(=O)N2N=CCC2c2ccccc2)CC1` (stereo not shown) [Example 193, 1-(4-(5-phenyl-4,5-dihydro-1H-pyrazole-1-carbonyl)piperidin-1-yl)ethanone]: the “% Inhibition” value in data set [1] (140 mg/kg PO, pre-dosed 15 minutes before i.v. mouse TNF and zVAD) is 94%.

In the case of `O=C(c1cnsn1)N1CCC(C(=O)N2N=CCC2c2ccccc2)CC1` (stereo not shown) [Example 155, (1-(1,2,5-thiadiazole-3-carbonyl)piperidin-4-yl)(5-phenyl-4,5-dihydro-1H-pyrazol-1-yl)methanone], in data set [1] (setting [8]), the “% Inhibition” value is listed as 49%. Further, the IC50 in data set [2] is 1 to 100 nM.
